Data set [1] has as its system A2780 (ovarian). Description: MTT cytotoxicity assay, A2780. The format is cell-based. Conditions: Homo sapiens, read-out: IC50 (nM) A2780. As to the method: (§1) The cytotoxicity potential of the compounds of the invention 16c-h was compared with the comparative compounds 16a, 16b and GWL-78 in a number of tumour cell lines and the non-cancer cell line WI38 after 96 hours exposure using the MTT (3-(4,5-Dimethylthiazol-2-yl)-2,5-diphenyltetrazolium bromide) colorimetric assay, as described below.
(§2) A panel of several types of human cancer cell lines including epidermoid (A431), lung (A549), ovarian (A2780) and breast (MCF7 and MDAMB-231), as well as the non-tumour cell line WI38, were used to determine the cytotoxicity of the compounds. The cells were grown in normal conditions at 37° C. under a 5% CO2 humidified atmosphere, either in Dulbecco's Modified Eagle Medium or Modified Eagle Medium (depending on the cell line), supplemented with 10% fetal bovine serum (Biosera, UK), 1% L-glutamine, 1% non-essential amino acids and 0.05% hydrocortisone (Gibco, Invitrogen, USA). Cells were then seeded into 96-well plates in a total volume of 160 μl, and allowed to reach a 30-40% degree of confluence before starting the experiment. The ligands were dissolved in sterilized ultrapure water at a maximum concentration of 100 μM, and serial decimal dilutions prepared. These were added to the cells in a volume of 40 μl. After 96 hours of continuous exposure to each ligand, the cytotoxicity was determined by the MTT (3-(4,5-Dimethylthiazol-2-yl)-2,5-diphenyltetrazolium bromide) (Lancaster Synthesis Ltd, UK) colorimetric assay (Skehan P, S. R., et al., Journal of the National Cancer Institute 1990, 82, 1107). Absorbance was quantified by spectrophotometry at A=570 nm (ELx808, Bio-Tek Instruments, Inc., USA). IC50 values were calculated by a dose-response analysis using the Origin 6.0™ software.

The test system of data set [2] is primary CLL cells. Description: Annexin V/propidium iodide flow cytometry assay in primary CLL cells. The format is cell-based. Conditions: CLL cell. Here is the method:
The cytotoxicity potential of the compounds of the invention 16c-h was also compared with the comparative compounds 16a, 16b and GWL-78 in a primary CLL cell lines using the Annexin V assay (van Engeland, M, et al., Cytometry 1998, 31, 1-9), as described below.
Freshly isolated peripheral blood CLL cells (1×10^8 mL^−1) were cultured in RPMI medium (Invitrogen, Paisley, U.K.) supplemented with 100 U/mL penicillin, […] streptomycin, and 10% fetal calf serum. The cells were incubated at 37° C. in a humidified 5% CO2 atmosphere in the presence of each compound. All compounds were dissolved in DMSO and were evaluated in serial dilutions against the primary CLL cells. In addition, control cultures were carried out to which no drug was added. The cytotoxic effects of the compounds were quantified using an annexin V/propidium iodide flow cytometry assay (Bender Medsystems, Vienna, Austria). All assays were performed in duplicate, and LD50 values were calculated from sigmoidal dose-response curves using the Prism 6.0 software (Graphpad Software Inc., San Diego, Calif.). The sigmoidal dose-response curves were derived by plotting log [compound concentration] against the percentage apoptosis induced by that concentration. A wide range of concentrations were used to establish the biologically active range for each individual compound.

In data set [3] the test system is MDAMB-231 (breast). The data set can be described thus: MTT cytotoxicity assay, MDAMB-231. It counts as cell-based. To be noted: Homo sapiens, read-out: IC50 (nM) MDAMB-231. Here is the method:
as §1, §2
A general note: Tetrazolium assays rely on reduction of a dye to a coloured formazan, in cell work by metabolically active cells.

For data set [4], the system named is WI38. The data set can be described thus: MTT cytotoxicity assay, non-tumour cell line WI38. It counts as cell-based. To be noted: Homo sapiens, read-out: IC50 (nM) WI38. As to the method:
as §1, §2

The subject of data set [5] is A431 (epidermoid). The data set can be described thus: MTT cytotoxicity assay, A431. It counts as cell-based. Conditions: Homo sapiens, read-out: IC50 (nM) A431. As to the method: as §1, §2
Data set [6] relates to A549 (lung). Description: MTT cytotoxicity assay, A549. Conditions: Homo sapiens, read-out: IC50 (nM) A549. The format is cell-based. As to the method: as §1, §2
In data set [7] the test system is Mia Paca 2. Description: MTT cytotoxicity assay, Mia Paca 2. The format is cell-based. Conditions: Homo sapiens, read-out: IC50 (nM) Mia Paca 2. Here is the method:
as §1, §2

For data set [8], the system named is MCF7 (breast). The data set can be described thus: MTT cytotoxicity assay, MCF7. Conditions: Homo sapiens, read-out: IC50 (nM) MCF7. The format is cell-based. As to the method:
as §1, §2

Data set [9] deals with DNA. To be noted: cited from earlier work.
Data set [10] can be described thus: MTD (maximum tolerated dose) study, intraperitoneal dosing. The format is in vivo, mouse. To be noted: Swiss-Webster mice, IP, 400 μg/Kg/day. As to the method: Initially a small scale study was carried out to determine the MTD (maximum tolerated dose) in Swiss-Webster mice using intraperitoneal dosing (IP). […] As 16f provided a marginally better toxicity profile in the MTD study, it was decided to carry out more extensive in vivo tumour xenograft studies on this molecule.

Like-named read-outs stand apart in the source and are kept apart here.

For orientation: IC50 means the concentration that gives 50% inhibition. For `COC(=O)c1cc(-c2ccc(NC(=O)CCCOc3cc4c(cc3OC)C(=O)N3CCC[C@H]3C=N4)cc2)cn1C` [Compound 16a, (S)-methyl 4-(4-(4-(7-methoxy-5-oxo-2,3,5,11a-tetrahydro-1H-pyrrolo[2,1-c][1,4]benzodiazepine-8-yloxy)butanamido)phenyl)-1-methyl-1H-pyrrole-2-carboxylate], the IC50 in data set [1] (A2780, 96 h) came to 1.87 nM; in data set [2], 6.2 nM; in data set [3] (MDA-MB-231, 96 h), 2.11 nM; in data set [4] (WI-38, 96 h), 160 nM; in data set [5] (A-431, 96 h), 2.31 nM; in data set [6] (A549, 96 h), 7.5 nM. Moreover, the half-inhibitory concentration (IC50) in [7] (MIA PaCa-2, 96 h) amounted to 1.2 nM; in [8] (MCF7, 96 h), 1.91 nM.
For the compound `COC(=O)c1ccc(NC(=O)c2ccc(NC(=O)CCCOc3cc4c(cc3OC)C(=O)N3CCC[C@H]3C=N4)n2C)n1C` [GWL-78, reference compound], the concentration for half-maximal inhibition (IC50) stood at 0.57 nM in data set [1] (A2780, 96 hours exposure, MTT); 1.3 nM in data set [2] (primary CLL cells, annexin V/propidium iodide, apoptosis, read-out: IC50); 0.12 nM in [3] (MDA-MB-231, 96 hours exposure, MTT); 41.3 nM in [4] (WI-38, 96 hours exposure, MTT, non-cancer cell line); 0.55 nM in data set [5] (A-431, 96 hours exposure, MTT); 6.1 nM in [6] (A549, 96 hours exposure, MTT). Further, the IC50 is 2.4 nM in data set [7] (MIA PaCa-2, 96 hours exposure, MTT) and 0.32 nM in [8] (MCF7, 96 hours exposure, MTT). In addition, the “increase in DNA binding affinity compared to constituent PBD and dipyrrole components” value in [9] was “up to 50 fold”.
In the case of `COC(=O)c1cc(-c2ccc(NC(=O)c3cc(-c4ccc(NC(=O)CCCOc5cc6c(cc5OC)C(=O)N5CCC[C@H]5C=N6)cc4)cn3C)cc2)cn1C` [Compound 16b, (S)-methyl 4-(4-(4-(4-(4-(7-methoxy-5-oxo-2,3,5,11a-tetrahydro-1H-pyrrolo[2,1-c][1,4]benzodiazepine-8-yloxy)butanamido)phenyl)-1-methyl-1H-pyrrole-2-carboxamido)phenyl)-1-methyl-1H-pyrrole-2-carboxylate], the 50% inhibitory concentration (IC50) came to 0.56 nM in data set [1] (A2780, 96 h); 4.7 nM in [2]; 0.46 nM in [3] (MDA-MB-231, 96 h); 159 nM in data set [4] (WI-38, 96 h); 2.91 nM in data set [5] (A-431, 96 h); 0.54 nM in [6] (A549, 96 h). Further, the IC50 in [7] (MIA PaCa-2, 96 h) turned out to be 0.35 nM; in [8] (MCF7, 96 h), 0.9 nM.
Regarding `CCOC(=O)c1nc(NC(=O)c2cc(-c3ccc(NC(=O)CCCOc4cc5c(cc4OC)C(=O)N4CCC[C@H]4C=N5)cc3)cn2C)cn1C` [Compound 16d, (S)-ethyl 4-(4-(4-(4-(7-methoxy-5-oxo-2,3,5,11a-tetrahydro-1H-pyrrolo[2,1-c][1,4]benzodiazepine-8-yloxy)butanamido)phenyl)-1-methyl-1H-pyrrole-2-carboxamido)-1-methyl-1H-imidazole-2-carboxylate], the half-inhibitory concentration (IC50) in data set [1] (A2780, 96 h) is 0.15 nM; in data set [2], 3 nM; in data set [3] (MDA-MB-231, 96 h), 0.45 nM; in data set [4] (WI-38, 96 h), 1240 nM; in data set [5] (A-431, 96 h), 0.19 nM; in data set [6] (A549, 96 h) it was 0.47 nM. Further, the half-inhibitory concentration (IC50) in [7] (MIA PaCa-2, 96 h) is 0.11 nM; in data set [8] (MCF7, 96 h) it was 0.37 nM.
Regarding `COC(=O)c1cc(NC(=O)c2cc(-c3ccc(NC(=O)CCCOc4cc5c(cc4OC)C(=O)N4CCC[C@H]4C=N5)cc3)cn2C)cn1C` [Compound 16c, (S)-methyl 4-(4-(4-(4-(7-methoxy-5-oxo-2,3,5,11a-tetrahydro-1H-pyrrolo[2,1-c][1,4]benzodiazepine-8-yloxy)butanamido)phenyl)-1-methyl-1H-pyrrole-2-carboxamido)-1-methyl-1H-pyrrole-2-carboxylate], the IC50 is 0.96 nM in data set [1] (A2780, 96 h); 2.1 nM in data set [2]; 2.7 nM in [3] (MDA-MB-231, 96 h); 426 nM in [4] (WI-38, 96 h); 4.6 nM in [5] (A-431, 96 h); 0.019 nM in data set [6] (A549, 96 h). The concentration for half-maximal inhibition (IC50) came out at 0.34 nM in data set [7] (MIA PaCa-2, 96 h) and 1.7 nM in data set [8] (MCF7, 96 h).
On to `COC(=O)c1cc(NC(=O)c2nc(NC(=O)c3cc(-c4ccc(NC(=O)CCCOc5cc6c(cc5OC)C(=O)N5CCC[C@H]5C=N6)cc4)cn3C)cn2C)cn1C` [Compound 16h, (S)-methyl 4-(4-(4-(4-(4-(7-methoxy-5-oxo-2,3,5,11a-tetrahydro-1H-pyrrolo[2,1-c][1,4]benzodiazepine-8-yloxy)butanamido)phenyl)-1-methyl-1H-pyrrole-2-carboxamido)-1-methyl-1H-imidazole-2-carboxamido)-1-methyl-1H-pyrrole-2-carboxylate], for which the IC50 in data set [2] was 0.037 nM; in [3] (MDA-MB-231, 96 h) it was 0.015 nM; in [4] (WI-38, 96 h), 65.6 nM; in data set [5] (A-431, 96 h) it was 0.306 nM; in [6] (A549, 96 h), 0.45 nM; in [7] (MIA PaCa-2, 96 h), 0.25 nM. Moreover, the 50% inhibitory concentration (IC50) in [8] (MCF7, 96 h) worked out at 0.075 nM.
Turning to `COC(=O)c1cc(-c2ccc(NC(=O)c3cc(NC(=O)CCCOc4cc5c(cc4OC)C(=O)N4CCC[C@H]4C=N5)cn3C)cc2)cn1C` [Compound 16e, (S)-methyl 4-(4-(4-(4-(7-methoxy-5-oxo-2,3,5,11a-tetrahydro-1H-pyrrolo[2,1-c][1,4]benzodiazepine-8-yloxy)butanamido)-1-methyl-1H-pyrrole-2-carboxamido)phenyl)-1-methyl-1H-pyrrole-2-carboxylate], the 50% inhibitory concentration (IC50) was determined as 0.013 nM in [1] (A2780, 96 h); 0.098 nM in [2]; 474 nM in data set [4] (WI-38, 96 h); 0.0056 nM in data set [5] (A-431, 96 h); 0.056 nM in data set [6] (A549, 96 h); 0.0013 nM in data set [7] (MIA PaCa-2, 96 h). In addition, in data set [10], the weight loss entry was “minor weight loss”.
On to `COC(=O)c1cc(NC(=O)c2cc(NC(=O)c3cc(-c4ccc(NC(=O)CCCOc5cc6c(cc5OC)C(=O)N5CCC[C@H]5C=N6)cc4)cn3C)cn2C)cn1C` [Compound 16g, (S)-methyl 4-(4-(4-(4-(4-(7-methoxy-5-oxo-2,3,5,11a-tetrahydro-1H-pyrrolo[2,1-c][1,4]benzodiazepine-8-yloxy)butanamido)phenyl)-1-methyl-1H-pyrrole-2-carboxamido)-1-methyl-1H-pyrrole-2-carboxamido)-1-methyl-1H-pyrrole-2-carboxylate], for which the concentration for half-maximal inhibition (IC50) in [1] (A2780, 96 h) stood at 0.24 nM; in data set [2], 0.96 nM; in data set [3] (MDA-MB-231, 96 h), 0.59 nM; in [4] (WI-38, 96 h), 41.3 nM; in data set [5] (A-431, 96 h), 0.86 nM; in [6] (A549, 96 h), 2.3 nM. The IC50 in data set [7] (MIA PaCa-2, 96 h) was determined as 0.31 nM; in [8] (MCF7, 96 h) it was 0.31 nM.

(Values after US9376440B2, “Pyrrolobenzodiazepines as antiproliferative agents” (MEDIMMUNE LIMITED, priority 2012, dated 2016).)
